The record followed here is US12606568B2, “SMARCA degraders and uses thereof” (Kymera Therapeutics, Inc., priority 2020, dated 2026).

Format in all cases: cell-based
Test [1] addresses T1, SMARCA4 (Homo sapiens, UniProt P51532).
T1 construct: SMARCA2 and SMARCA4 protein degradation in MV4-11 cells; endogenous in cells; host or cells: MV4-11
The test is described as follows: SMARCA4 Western blot MV4-11 degradation. As to conditions: for Dmax: MV4-11, MV4-11 cells, read-out: SMARCA4 MSD MV411 degradation 24 h: average Dmax %; for Dmax / DC50: 24 h; for DC50 / SMARCA4 MSD MV411 degradation 24 h: average Dmax %: MV4-11 cells; for DC50: read-out: SMARCA4 MSD MV411 degradation 24 h: Mean external-Abs DC50. In general terms: Immunoblotting shows a protein as a band on a membrane.

Test [2] addresses T2, SMARCA2 (Homo sapiens, UniProt P51531). The test is described as follows: SMARCA2 Western blot MV4-11 degradation. To be noted: for Dmax: MV4-11, MV4-11 cells, read-out: SMARCA2 MSD MV411 degradation 24 h: average Dmax %; for Dmax / DC50: 24 h; for DC50 / SMARCA2 MSD MV411 degradation 24 h: average Dmax %: MV4-11 cells; for DC50: read-out: SMARCA2 MSD MV411 degradation 24 h: Mean external-Abs DC50. Set-up: SMARCA2 and SMARCA4 protein degradation in MV4-11 cells; endogenous in cells; host or cells: MV4-11.

Test [3] addresses T2, SMARCA2. The test is described as follows: MSD SMARCA2 degradation in A549 cell line. Set-up: endogenous in cells. As to conditions: for Dmax: A549, A549 cells; for Dmax / DC50: 24 h; for SMARCA2 MSD A549 degradation 24 h: Average Dmax % / DC50: A549 cells; for DC50: read-out: SMARCA2 MSD A549 degradation 24 h: Average external-Abs DC50. The method, boiled down:
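A549 cells treated 24 h with compound, 3-fold series 1000 nM down to 0.152 nM plus DMSO. RIPA lysates captured on MSD plates, probed with rabbit anti-SMARCA2/BRM (1 µg/ml) then SULFO-TAG anti-rabbit, electrochemiluminescence read. DC50 and 24 h Dmax reported as letter bins.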

T2 sequence (P51531 whole entry): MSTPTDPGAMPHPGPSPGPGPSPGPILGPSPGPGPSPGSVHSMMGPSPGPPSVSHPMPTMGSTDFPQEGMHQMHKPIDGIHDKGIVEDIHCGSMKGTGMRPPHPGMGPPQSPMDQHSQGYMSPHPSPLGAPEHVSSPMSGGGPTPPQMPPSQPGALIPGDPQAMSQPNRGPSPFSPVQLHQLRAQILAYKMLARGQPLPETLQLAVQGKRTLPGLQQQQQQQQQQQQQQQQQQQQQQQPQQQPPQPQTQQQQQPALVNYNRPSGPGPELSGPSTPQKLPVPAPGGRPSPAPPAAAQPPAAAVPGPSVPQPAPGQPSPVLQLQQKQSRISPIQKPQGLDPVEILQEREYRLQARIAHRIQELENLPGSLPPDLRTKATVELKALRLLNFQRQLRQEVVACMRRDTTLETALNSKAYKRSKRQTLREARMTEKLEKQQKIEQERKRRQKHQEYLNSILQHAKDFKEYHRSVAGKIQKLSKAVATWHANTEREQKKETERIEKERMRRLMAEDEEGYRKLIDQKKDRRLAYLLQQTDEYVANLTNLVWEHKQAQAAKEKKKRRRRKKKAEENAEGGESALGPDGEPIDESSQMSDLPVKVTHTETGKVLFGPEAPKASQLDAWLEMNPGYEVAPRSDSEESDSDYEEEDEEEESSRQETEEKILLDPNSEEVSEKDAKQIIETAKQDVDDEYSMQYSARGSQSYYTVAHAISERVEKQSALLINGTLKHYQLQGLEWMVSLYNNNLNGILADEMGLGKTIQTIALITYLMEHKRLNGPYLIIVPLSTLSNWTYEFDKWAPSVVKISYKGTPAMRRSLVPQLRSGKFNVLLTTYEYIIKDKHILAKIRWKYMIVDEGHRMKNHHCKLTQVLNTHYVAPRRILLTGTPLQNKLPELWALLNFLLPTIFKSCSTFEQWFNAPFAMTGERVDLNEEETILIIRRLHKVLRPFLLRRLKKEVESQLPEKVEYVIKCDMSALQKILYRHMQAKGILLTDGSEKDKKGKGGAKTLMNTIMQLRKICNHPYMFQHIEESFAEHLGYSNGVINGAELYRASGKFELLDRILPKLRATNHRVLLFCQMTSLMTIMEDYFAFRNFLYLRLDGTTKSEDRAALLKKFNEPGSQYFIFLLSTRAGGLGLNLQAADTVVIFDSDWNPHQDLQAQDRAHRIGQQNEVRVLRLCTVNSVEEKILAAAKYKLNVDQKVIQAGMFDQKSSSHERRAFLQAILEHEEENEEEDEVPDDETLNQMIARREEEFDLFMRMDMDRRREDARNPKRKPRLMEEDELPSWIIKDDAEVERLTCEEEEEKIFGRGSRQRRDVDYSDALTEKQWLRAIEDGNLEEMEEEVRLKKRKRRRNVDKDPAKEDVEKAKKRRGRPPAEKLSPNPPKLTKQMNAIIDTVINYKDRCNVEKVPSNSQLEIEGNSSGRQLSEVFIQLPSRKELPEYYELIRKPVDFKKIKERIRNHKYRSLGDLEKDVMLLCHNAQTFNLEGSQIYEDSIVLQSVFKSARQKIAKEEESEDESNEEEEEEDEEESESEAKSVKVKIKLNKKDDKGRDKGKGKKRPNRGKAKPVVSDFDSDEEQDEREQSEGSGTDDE
T1 sequence (P51532 whole entry): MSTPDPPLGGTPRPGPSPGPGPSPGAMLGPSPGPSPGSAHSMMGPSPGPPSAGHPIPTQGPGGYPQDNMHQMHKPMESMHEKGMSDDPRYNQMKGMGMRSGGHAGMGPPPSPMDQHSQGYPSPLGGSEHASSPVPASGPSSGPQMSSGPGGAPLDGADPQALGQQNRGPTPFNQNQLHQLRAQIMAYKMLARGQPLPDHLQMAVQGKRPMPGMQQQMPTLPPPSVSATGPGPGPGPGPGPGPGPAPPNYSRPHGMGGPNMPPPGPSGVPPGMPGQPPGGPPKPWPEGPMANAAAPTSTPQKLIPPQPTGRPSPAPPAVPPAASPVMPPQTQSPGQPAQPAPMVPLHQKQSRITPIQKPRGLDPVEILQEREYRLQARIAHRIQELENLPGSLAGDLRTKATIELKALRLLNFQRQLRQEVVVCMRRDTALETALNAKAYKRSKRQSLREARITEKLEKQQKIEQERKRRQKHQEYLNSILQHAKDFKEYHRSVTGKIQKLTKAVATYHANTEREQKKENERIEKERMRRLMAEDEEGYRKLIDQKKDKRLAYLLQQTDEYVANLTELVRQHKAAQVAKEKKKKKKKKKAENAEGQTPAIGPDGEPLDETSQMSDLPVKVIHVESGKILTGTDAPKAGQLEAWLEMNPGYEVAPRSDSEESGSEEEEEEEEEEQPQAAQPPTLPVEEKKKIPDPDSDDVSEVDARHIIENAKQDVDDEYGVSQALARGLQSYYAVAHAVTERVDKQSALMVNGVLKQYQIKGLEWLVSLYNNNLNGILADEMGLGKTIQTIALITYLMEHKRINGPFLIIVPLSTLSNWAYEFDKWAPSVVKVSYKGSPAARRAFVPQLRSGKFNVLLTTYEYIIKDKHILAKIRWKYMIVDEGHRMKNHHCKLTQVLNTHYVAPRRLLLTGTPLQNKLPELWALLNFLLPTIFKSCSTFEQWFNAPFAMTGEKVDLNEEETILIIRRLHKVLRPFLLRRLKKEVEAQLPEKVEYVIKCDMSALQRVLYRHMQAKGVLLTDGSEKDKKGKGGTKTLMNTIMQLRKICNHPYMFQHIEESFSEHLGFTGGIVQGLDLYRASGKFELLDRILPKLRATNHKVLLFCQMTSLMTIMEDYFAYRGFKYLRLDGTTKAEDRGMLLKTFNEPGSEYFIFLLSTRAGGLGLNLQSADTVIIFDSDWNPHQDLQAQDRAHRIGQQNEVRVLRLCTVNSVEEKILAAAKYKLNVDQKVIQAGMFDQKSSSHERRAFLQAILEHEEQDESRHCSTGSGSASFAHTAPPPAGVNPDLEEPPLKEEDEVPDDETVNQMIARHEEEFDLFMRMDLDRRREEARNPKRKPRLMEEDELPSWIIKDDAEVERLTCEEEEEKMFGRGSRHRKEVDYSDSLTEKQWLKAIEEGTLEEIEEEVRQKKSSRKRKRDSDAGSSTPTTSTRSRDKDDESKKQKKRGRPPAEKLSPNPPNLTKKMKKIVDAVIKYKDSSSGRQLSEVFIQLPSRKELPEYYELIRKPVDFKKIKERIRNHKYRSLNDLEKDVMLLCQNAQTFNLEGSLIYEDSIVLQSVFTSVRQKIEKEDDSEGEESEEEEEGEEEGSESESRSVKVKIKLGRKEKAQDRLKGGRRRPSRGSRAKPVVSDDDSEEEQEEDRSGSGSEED

One may read the Dmax as the greatest extent of degradation seen. As usually defined, the DC50 is the concentration at which degradation of the target reaches its halfway point. On to `Cc1n[nH]c(C)c1-c1ccc(CNC(=O)[C@@H]2C[C@@H](O)CN2C(=O)[C@@H](NC(=O)[C@H]2CC3(C2)C[C@H](N2CCC(c4cnc(N5C6CCC5CN(c5cc(-c7ccccc7O)nnc5N)C6)nc4)CC2)C3)C(C)(C)C)cc1` (stereo partly drawn) [I-31, (2S,4R)-1-((2S)-2-(6-(4-(2-(3-(3-amino-6-(2-hydroxyphenyl)pyridazin-4-yl)-3,8-diazabicyclo[3.2.1]octan-8-yl)pyrimidin-5-yl)piperidin-1-yl)spiro[3.3]heptane-2-carboxamido)-3,3-dimethylbutanoyl)-N-(4-(3,5-dimethyl-1H-pyrazol-4-yl)benzyl)-4-hydroxypyrrolidine-2-carboxamide], for which the values for the greatest degradation seen (Dmax) in test [1], in test [2] and in test [3] were under 50%, 50 to 70% and under 50%, respectively. Moreover, the DC50 was over 1000 nM in test [1] and under 100 nM in test [2].

Regarding `Cc1n[nH]c(C)c1-c1ccc(CNC(=O)[C@@H]2C[C@@H](O)CN2C(=O)[C@@H](NC(=O)[C@H]2CC3(C2)C[C@H](N2CCC(c4cnc(N5C6CCC5CN(c5cc(-c7ccccc7O)nnc5N)C6)nc4)CC2)C3)C(C)(C)C)cc1` (stereo partly drawn) [I-32, (2S,4R)-1-((2S)-2-(6-(4-(2-(3-(3-amino-6-(2-hydroxyphenyl)pyridazin-4-yl)-3,8-diazabicyclo[3.2.1]octan-8-yl)pyrimidin-5-yl)piperidin-1-yl)spiro[3.3]heptane-2-carboxamido)-3,3-dimethylbutanoyl)-N-(4-(3,5-dimethyl-1H-pyrazol-4-yl)benzyl)-4-hydroxypyrrolidine-2-carboxamide], in test [1], the “SMARCA4 MSD MV411 degradation 24 h: average Dmax %” value was “D (D (<50% degradation))” and the DC50 is over 1000 nM. In test [2], the “SMARCA2 MSD MV411 degradation 24 h: average Dmax %” value was “D (D (<50% degradation))” and the 50% degradation concentration (DC50) fell in the range of 100 to 500 nM. Besides, the “SMARCA2 MSD A549 degradation 24 h: Average Dmax %” value in test [3] was “D (D (<50% degradation))”.

On to `Cc1nccn1-c1ccc(CNC(=O)[C@@H]2C[C@@H](O)CN2C(=O)[C@@H](NC(=O)[C@H]2CC3(C2)C[C@H](N2CCC(c4cnc(N5C6CCC5CN(c5cc(-c7ccccc7O)nnc5N)C6)nc4)CC2)C3)C(C)(C)C)cc1` (stereo partly drawn) [I-33, (2S,4R)-1-((2S)-2-(6-(4-(2-(3-(3-amino-6-(2-hydroxyphenyl)pyridazin-4-yl)-3,8-diazabicyclo[3.2.1]octan-8-yl)pyrimidin-5-yl)piperidin-1-yl)spiro[3.3]heptane-2-carboxamido)-3,3-dimethylbutanoyl)-4-hydroxy-N-(4-(2-methyl-1H-imidazol-1-yl)benzyl)pyrrolidine-2-carboxamide], for which the Dmax in test [1], in test [2] and in test [3] was under 50% in each case. The figures for the half-maximal degradation concentration (DC50) in test [1] and in test [2] were over 1000 nM and 100 to 500 nM, respectively.

`Cn1nccc1-c1ccc(CNC(=O)[C@@H]2C[C@@H](O)CN2C(=O)[C@@H](NC(=O)[C@H]2CC3(C2)C[C@H](N2CCC(c4cnc(N5C6CCC5CN(c5cc(-c7ccccc7O)nnc5N)C6)nc4)CC2)C3)C(C)(C)C)cc1` (stereo partly drawn) [I-35, (2S,4R)-1-((2S)-2-(6-(4-(2-(3-(3-amino-6-(2-hydroxyphenyl)pyridazin-4-yl)-3,8-diazabicyclo[3.2.1]octan-8-yl)pyrimidin-5-yl)piperidin-1-yl)spiro[3.3]heptane-2-carboxamido)-3,3-dimethylbutanoyl)-4-hydroxy-N-(4-(1-methyl-1H-pyrazol-5-yl)benzyl)pyrrolidine-2-carboxamide]: the Dmax in test [1] was in the range of 50 to 70%; in test [2] it was 70 to 90%; in test [3], 70 to 90%. The DC50 was over 1000 nM in test [1], under 100 nM in test [2] and 100 to 500 nM in test [3].

For the molecule `Cn1nccc1-c1ccc(CNC(=O)[C@@H]2C[C@@H](O)CN2C(=O)[C@@H](NC(=O)[C@H]2CC3(C2)C[C@H](N2CCC(c4cnc(N5C6CCC5CN(c5cc(-c7ccccc7O)nnc5N)C6)nc4)CC2)C3)C(C)(C)C)cc1` (stereo partly drawn) [I-36, (2S,4R)-1-((2S)-2-(6-(4-(2-(3-(3-amino-6-(2-hydroxyphenyl)pyridazin-4-yl)-3,8-diazabicyclo[3.2.1]octan-8-yl)pyrimidin-5-yl)piperidin-1-yl)spiro[3.3]heptane-2-carboxamido)-3,3-dimethylbutanoyl)-4-hydroxy-N-(4-(1-methyl-1H-pyrazol-5-yl)benzyl)-pyrrolidine-2-carboxamide], in test [1], the “SMARCA4 MSD MV411 degradation 24 h: average Dmax %” value is listed as “D (D (<50% degradation))” and the half-maximal degradation concentration (DC50) is over 1000 nM. In test [2], the “SMARCA2 MSD MV411 degradation 24 h: average Dmax %” value is “B (B (>70-90% degradation))” and the DC50 was under 100 nM. In test [3], the “SMARCA2 MSD A549 degradation 24 h: Average Dmax %” value is “B (B (>70-90% o degradation))” and the DC50 was in the range of 100 to 500 nM.

In the case of `Cc1ncsc1-c1ccc(CNC(=O)[C@@H]2C[C@@H](O)CN2C(=O)[C@@H](NC(=O)CN(C)Cc2cnc(N3C4CCC3CN(c3cc(-c5ccccc5O)nnc3N)C4)nc2)C(C)(C)C)cc1` [I-37, (2S,4R)-1-((2S)-2-(2-(((2-(3-(3-amino-6-(2-hydroxyphenyl)pyridazin-4-yl)-3,8-diazabicyclo[3.2.1]octan-8-yl)pyrimidin-5-yl)methyl)(methyl)amino)acetamido)-3,3-dimethylbutanoyl)-4-hydroxy-N-(4-(4-methylthiazol-5-yl)benzyl)pyrrolidine-2-carboxamide], the maximal degradation (Dmax) in test [1], in test [2] and in test [3] was over 90% in each case. Besides, the DC50 was under 100 nM in test [1], under 100 nM in test [2] and 501 to 1000 nM in test [3].

Turning to `Cc1ncsc1-c1ccc(CNC(=O)[C@@H]2C[C@@H](O)CN2C(=O)[C@@H](NC(=O)C2CC3(C2)CC(N2CCC(Oc4cc(N5C6CCC5CN(c5cc(-c7ccccc7O)nnc5N)C6)ccn4)CC2)C3)C(C)(C)C)cc1` (stereo partly drawn) [I-38, (2S,4R)-1-((2S)-2-(6-(4-((4-(3-(3-amino-6-(2-hydroxyphenyl)pyridazin-4-yl)-3,8-diazabicyclo[3.2.1]octan-8-yl)pyridin-2-yl)oxy)piperidin-1-yl)spiro[3.3]heptane-2-carboxamido)-3,3-dimethylbutanoyl)-4-hydroxy-N-(4-(4-methylthiazol-5-yl)benzyl)pyrrolidine-2-carboxamide], the values for the maximal degradation (Dmax) in test [1], in test [2] and in test [3] were over 90%, under 50% and 70 to 90%, respectively. Also, the DC50 in test [1], in test [2] and in test [3] was over 1000 nM in each case.

For `Cc1ncsc1-c1ccc(CNC(=O)[C@@H]2C[C@@H](O)CN2C(=O)[C@@H](NC(=O)[C@H]2CC3(C2)C[C@H](N2CCC(Oc4ccc(N5C6CCC5CN(c5cc(-c7ccccc7O)nnc5N)C6)cn4)CC2)C3)C(C)(C)C)cc1` (stereo partly drawn) [I-39, (2S,4R)-1-((2S)-2-(6-(4-((5-(3-(3-amino-6-(2-hydroxyphenyl)pyridazin-4-yl)-3,8-diazabicyclo[3.2.1]octan-8-yl)pyridin-2-yl)oxy)piperidin-1-yl)spiro[3.3]heptane-2-carboxamido)-3,3-dimethylbutanoyl)-4-hydroxy-N-(4-(4-methylthiazol-5-yl)benzyl)pyrrolidine-2-carboxamide], the Dmax in test [1] was over 90%; in test [2] it was 70 to 90%; in test [3], 50 to 70%. Also, the 50% degradation concentration (DC50) was over 1000 nM in test [1], 100 to 500 nM in test [2] and over 1000 nM in test [3].

Consider `Cc1ncsc1-c1ccc(CNC(=O)[C@@H]2C[C@@H](O)CN2C(=O)[C@@H](NC(=O)[C@H]2CC3(C2)C[C@H](N2CCC(Oc4ccc(N5C6CCC5CN(c5cc(-c7ccccc7O)nnc5N)C6)cn4)CC2)C3)C(C)(C)C)cc1` (stereo partly drawn) [I-40], for which, in test [1], the “SMARCA4 MSD MV411 degradation 24 h: average Dmax %” value was “A (A (>90% degradation))” and the 50% degradation concentration (DC50) is over 1000 nM. Further, in test [2], the “SMARCA2 MSD MV411 degradation 24 h: average Dmax %” value is listed as “B (B (>70-90% degradation))” and the DC50 is under 100 nM. In test [3], the “SMARCA2 MSD A549 degradation 24 h: Average Dmax %” value is given as “B (B (>70-90% o degradation))” and the 50% degradation concentration (DC50) is over 1000 nM.

As to `Cc1ncsc1-c1ccc(CNC(=O)[C@@H]2C[C@@H](O)CN2C(=O)[C@@H](NC(=O)C2CC3(C2)CC(N2CCC(COc4ccc(N5C6CCC5CN(c5cc(-c7ccccc7O)nnc5N)C6)cn4)CC2)C3)C(C)(C)C)cc1` (stereo partly drawn) [I-41, (2S,4R)-1-((2S)-2-(6-(4-(((5-(3-(3-amino-6-(2-hydroxyphenyl)pyridazin-4-yl)-3,8-diazabi-cyclo[3.2.1]octan-8-yl)pyridin-2-yl)oxy)methyl)piperidin-1-yl)spiro[3.3]heptane-2-carbox-amido)-3,3-dimethylbutanoyl)-4-hydroxy-N-(4-(4-methylthiazol-5-yl)benzyl)pyrrolidine-2-carboxamide], the Dmax was over 90% in test [1], under 50% in test [2] and 50 to 70% in test [3]. Besides, the 50% degradation concentration (DC50) in test [1], in test [2] and in test [3] was over 1000 nM each time.
